The results in this text go back to patent US20250163057A1, “DCN-1 MODULATING COMPOUNDS AND METHODS OF USE THEREOF” (Cellarity, Inc., priority 2023, published 2025).

Like-named read-outs stand apart in the source and are kept apart here.

For data set [1], the target named is T1, DCN1 (DCUND1) protein PONY domain (Homo sapiens (Human), UniProt Q96GG9). The data set can be described thus: Off-rate measurement of reversible covalent molecules (jump dilution TR-FRET with Cy5 probe). Format: binding. From the text:
A typical covalent compound is assumed to stay bound to a protein for at least the life of that protein in the cell. In reality, there is a range of how long a covalent compounds remains bound before a reverse reaction takes place. Thus, some covalent bonds can be labeled as reversible as their reverse reaction takes place in a measurable amount of time under physiological conditions. The assay capitalizes on the range of covalent binders by using a high affinity covalent binder as a probe to displace the more reversible binders in an adaptation of the jump dilution method.
In this version of the jump dilution method, the increase in covalent probe binding over time was measured through a TR-FRET reaction between the covalent probe and the biotinylated target protein.
The recombinant form of the DCN1 (DCUND1) protein PONY domain was produced using an E. coli expression system at Viva Biotech (China). The DCN1 protein was biotinylated (EZ sulfo-NHS-LC-biotin; Thermofisher) for labeling with streptavidin terbium (Tb) cryptate in the reaction. This biotinylated protein was used in two forms of the TR-FRET assay as described below.
The off-rate measurement is executed in two steps based on the jump dilution method. […] The greatest dilution allowed within the constraints of the assay was chosen. These factors allow a competitive advantage for the covalent probe to replace the test compound when that compound releases from the target protein. The actual measure is the rate of increased TR-FRET signal as the covalent probe replaces the test compound over time. […] The resulting time dependent curve of the TR-FRET signal is fit to the following equation:
Y=Y0+(Plateau−Y0)*(1−exp(−K*x))
K is the rate constant (1/unit of time). The residence time is defined as the inverse of K, the rate constant. The half-life is calculated as ln(2)/K.
On the technique in general: Time-resolved FRET reads energy transfer from a long-lived donor to a nearby acceptor.

For data set [2], the target named is T1, DCN1 (DCUND1) protein PONY domain. Kind of data set: TR-FRET assay, DCN1 binding with FAM-labeled probe. In short, it runs like this:
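TR-FRET ratio (Tb-DCN1 to FAM-probe) read at 1, 5 and 24 hrs after compound addition. Protein: recombinant PONY domain from E. coli, biotinylated and coupled to streptavidin terbium. Either 5 nM DCN1 with 20 nM FAM-probe, or 0.31 nM DCN1 with 100 nM FAM-labelled plus 800 nM unlabelled probe.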

Data set [3] deals with DCN2 (DCUND2) protein PONY domain (Homo sapiens (Human), UniProt Q6PH85). The data set can be described thus: Measurement of Kinact/KI in the DCN2 TR-FRET Assay. In kind it is binding. As for the experimental part:
A TR-FRET Assay was performed to evaluate the ability of the compounds to bind DCN-2.
The time resolved—Forster's resonance energy transfer (TR-FRET) assay was designed following the protocol established in (Scott et al., Nat Chem Biol. 2017 August; 13(8): 850-857). A recombinant form of the DCN2 (DCUND2) protein PONY domain was produced using an E. coli expression system at Viva Biotech China. The DCN2 protein was biotinylated (EZ sulfo-NHS-LC-biotin; Thermofisher) for labeling with 2.5 nM streptavidin terbium (Tb) cryptate in the reaction. The probe was changed to a non-covalent DCN1 inhibitor labeled with carboxyfluorescein (FAM; Zhou et al, Nat Commun. 2017; 8: 1150). Buffer conditions were modified to enhance protein stability by replacing TritonX with 0.05% Tween20 and increasing NaCl to 200 mM. The compounds were screened against 0.31 nM DCN1 and 40 nM FAM-labeled probe in a 40 ul reaction volume. The TR-FRET ratio between Tb-DCN1 and the FAM-labeled probe was measured in a 384-well opti-plate (Perkin Elmer) using a plate reader (BMG) at after treatment with compound (final DMSO concentration of 0.1%). The ratio was normalized to the high (DCN1 and FAM-probe) and low (DCN1 and no probe) controls for a readout of % activity (=100*(x−low)/(high−low)).
The Kinact and KI measurements were taken to allow for continuous reads over 24 hrs. Plates were read every 5 min up to 1 hr, every 15 min up to 5 hr, and every hour up to […]. Kinact and KI were calculated based on the following equations (Krippendorff B F, et al. Mechanism-based inhibition: deriving K(I) and k(inact) directly from time-dependent IC(50) values. J BiomolScreen. 2009; Mons E et al. A Comprehensive Guide for Assessing Covalent Inhibition in Enzymatic Assays Illustrated with Kinetic Simulations. CurrProtoc. 2022) where the KM of the probe against DCN2 is 21.62 nM. The Kinact and KI values could be estimated from the tight curves of the IC50 values over time.

Data set [4] has as its system Cullin-3 (CUL3) neddylation. Kind of data set: AlphaLISA assay for Cullin-3 (CUL3) neddylation in TF 1 cells. In kind it is cell-based. The conditions noted are these: Homo sapiens, TF-1, 3 h, 3 hours treatment. A digest of the protocol:
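TF 1 cells in unsupplemented IMDM treated with compound concentrations for 3 h, then lysed. CUL3 neddylation detected by AlphaLISA (biotinylated anti-NEDD8, anti-CUL3 acceptor beads overnight, streptavidin donor beads 1 h); normalized to vehicle (0%) and 1 μM DI-1548 (100%), IC50 from Hill fits.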
(In general: Alpha assays give light when donor and acceptor beads are brought close together.)

DCN2 (DCUND2) protein PONY domain, sequence (Q6PH85 60-248): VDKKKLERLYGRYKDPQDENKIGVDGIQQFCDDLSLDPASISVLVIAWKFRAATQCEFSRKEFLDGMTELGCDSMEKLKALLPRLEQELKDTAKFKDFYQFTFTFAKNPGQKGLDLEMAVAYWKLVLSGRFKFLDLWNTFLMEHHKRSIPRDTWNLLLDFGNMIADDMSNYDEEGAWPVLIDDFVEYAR
T1 sequence (Q96GG9 60-248): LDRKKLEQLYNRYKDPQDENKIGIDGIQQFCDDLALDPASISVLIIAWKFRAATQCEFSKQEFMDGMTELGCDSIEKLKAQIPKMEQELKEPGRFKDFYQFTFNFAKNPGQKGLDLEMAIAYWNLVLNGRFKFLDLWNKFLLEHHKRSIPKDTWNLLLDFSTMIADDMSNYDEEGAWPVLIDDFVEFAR

Usually koff stands for the rate constant with which the complex falls apart. High values mean a short-lived complex, low ones a long-lived complex. A word on the half-life: it is the time in which the quantity being followed falls by half. Low values mean fast loss, high ones slow loss. The term IC50 denotes the point on the concentration scale where inhibition reaches its midpoint. The kinact is the maximal first-order rate at which the target is inactivated. For `CCN1C(=O)[C@@H](NC(=O)c2cccc(C(F)(F)F)c2)[C@@H](C2CC2)c2c(C(=O)N3C[C@H](NC)C[C@H]3C#N)nn(C3CCOCC3)c21` [Compound I-425, N-((4S,5S)-3-((2S,4R)-2-cyano-4-(methylamino)pyrrolidine-1-carbonyl)-4-cyclopropyl-7-ethyl-6-oxo-1-(tetrahydro-2H-pyran-4-yl)-4,5,6,7-tetrahydro-1H-pyrazolo[3,4-b]pyridin-5-yl)-3-(trifluoromethyl)benzamide], the Category entry in data set [1] (binding mode category from off-rate assay) is recorded as “fast reversible”. Besides, the residence time in data set [1] (inverse of rate constant K, jump dilution TR-FRET) stood at 76 min. The dissociation rate constant (koff) in data set [1] (jump dilution, Cy5 covalent probe 150 nM, TR-FRET) was 0.000219 s⁻¹. The half-life in data set [1] (ln(2)/K, jump dilution TR-FRET) came to 52.69 min. Further, the 50% inhibitory concentration (IC50) in data set [2] (24 hr after treatment with compound, read-out: TR FRET IC50 24 hr) was at most 200 nM; in data set [2] (read-out: TR FRET IC50 1 hr, 1 hr after treatment with compound), at most 200 nM; in data set [4] it was at most 100 nM. The kinact/KI in data set [3] (read-out: Kinact/KI (converted)) was 5000 M⁻¹ s⁻¹. Besides, the Ki in data set [3] (time-dependent IC50 over 24 hrs) worked out at 21.6 nM. Besides, the kinact in data set [3] (time-dependent IC50 over 24 hrs, read-out: Kinact (converted)) is 0.000115 s⁻¹.
